This assay deals with H1 influenza virus A/Puerto Rico/8/1934 (PR8). Further details: species or system BALB/c mice. The following applies: mouse, in vivo.

With `CCOC(=O)C1=C[C@@H](OC(CC)CC)[C@H](NC(C)=O)[C@@H](N)C1` [Tamiflu], the protection result is “completely ineffective in protection”.

The record behind these values is patent US11827693B2, “Composition and methods based on neutralizing antibodies delivered intranasally for enhanced therapeutic efficacy” (priority 2013, dated 2023).
